ChEMBL document CHEMBL4613212, “Insights of synthetic analogues of anti-leprosy agents” (Bioorg Med Chem, 2019)
Converted amounts (≈) assume the structure as drawn. The source made the active and inactive calls. No cut-off for these calls is given here.

What was measured:
Type in all cases: functional
[1] = test system: Mycobacterium tuberculosis; experiment: Antimycobacterial activity against Mycobacterium tuberculosis H37Rv by BACTEC radiometric growth assay
[2] = test system: Mycolicibacterium smegmatis; experiment: Antimycobacterial activity against DDS sensitive Mycobacterium smegmatis ATCC 607 […]
[3] = test system: Mycobacterium tuberculosis; experiment: Antitubercular activity against Mycobacterium tuberculosis infected in mouse assessed as reduction in microbial load at 2 to 3 mg ip, pretreated for 48 to 72 hrs followed by microbial infection and subsequent compound dosing at 48 to 72 hrs post-infection measured 24 to 32 days post-infection relative to control; set-up: scale not given: the % may be the effect or the level left
[4] = test system: Mycolicibacterium smegmatis; experiment: Antimycobacterial activity against DDS resistant Mycobacterium smegmatis ATCC 607 […]
[5] = test system: Mycolicibacterium smegmatis; experiment: Antimicrobial activity against Mycobacterium smegmatis ATCC 607
[6] = test system: Mycobacterium tuberculosis; experiment: Antitubercular activity against Mycobacterium tuberculosis H37Rv ATCC 27294 assessed as growth inhibition at 6.25 ug/ml by microplate alamar blue assay relative to control

## CCCCCCCCS(=O)(=O)NS(N)(=O)=O
[1]
  MIC: > 25 µg/mL

## CCCCCCCCS(=O)(=O)NS(C)(=O)=O
[1]
  MIC: > 25 µg/mL

## Nc1ccc(S(=O)(=O)c2ccccc2N)cc1
[2]
  MIC: 44.2 µg/mL (≈ 178 µM)

## CCCCCCCCC[S+]([O-])CC(=O)OC (stereo not given)
[1]
  MIC: 6.25 µg/mL (≈ 25.2 µM)

## COCCOCCOCCOc1c2cc(C(C)(C)C)cc1Cc1cc(C(C)(C)C)cc(c1OCCOCCOCCOC)Cc1cc(C(C)(C)C)cc(c1OCCOCCOCCOC)Cc1cc(C(C)(C)C)cc(c1OCCOCCOCCOC)Cc1cc(C(C)(C)C)cc(c1OCCOCCOCCOC)Cc1cc(C(C)(C)C)cc(c1OCCOCCOCCOC)Cc1cc(C(C)(C)C)cc(c1OCCOCCOCCOC)Cc1cc(C(C)(C)C)cc(c1OCCOCCOCCOC)C2
[3]
  Activity: 80 - 100%

## CCCCCCCCC[S@@+]([O-])CC(=O)OC
[1]
  MIC: > 25 µg/mL

## C=C/C(C)=C/[C@@]1(C)SC(=O)C(C)=C1O [THIOLACTOMYCIN]
[1]
  MIC: 25 µg/mL (≈ 119 µM)

## NC(=O)CS(=O)(=O)CCCCc1ccccc1
[1]
  MIC: > 25 µg/mL

## Nc1ccc(S(=O)(=O)c2ccc(NCCO)cc2)cc1
[2]
  MIC: 13.7 µg/mL (≈ 46.9 µM)
[4]
  MIC: 2500 µg/mL (≈ 8550 µM)

## CC(C)(C)c1cc2c(O)c(c1)Cc1cc(C(C)(C)C)cc(c1O)Cc1cc(C(C)(C)C)cc(c1O)Cc1cc(C(C)(C)C)cc(c1O)Cc1cc(C(C)(C)C)cc(c1O)Cc1cc(C(C)(C)C)cc(c1O)C2
[3]
  Activity: inactive

## CCCNc1ccc(S(=O)(=O)c2ccc(N)cc2)cc1
[2]
  MIC: 34.4 µg/mL (≈ 118 µM)
[4]
  MIC: > 1200 µg/mL

## Nc1ccc(S(=O)(=O)c2ccccc2)cc1
[2]
  MIC: 1290 µg/mL (≈ 5520 µM)
[4]
  MIC: > 2580 µg/mL

## CC(C)(C)c1cc2c(O)c(c1)Cc1cc(C(C)(C)C)cc(c1O)Cc1cc(C(C)(C)C)cc(c1O)Cc1cc(C(C)(C)C)cc(c1O)Cc1cc(C(C)(C)C)cc(c1O)Cc1cc(C(C)(C)C)cc(c1O)Cc1cc(C(C)(C)C)cc(c1O)Cc1cc(C(C)(C)C)cc(c1O)C2
[3]
  Activity: 20 - 50%

## CCCCCCCCCCCCOc1c2cc(S(=O)(=O)O)cc1Cc1cc(S(=O)(=O)O)cc(c1OCCCCCCCCCCCC)Cc1cc(S(=O)(=O)O)cc(c1OCCCCCCCCCCCC)Cc1cc(S(=O)(=O)O)cc(c1OCCCCCCCCCCCC)Cc1cc(S(=O)(=O)O)cc(c1OCCCCCCCCCCCC)Cc1cc(S(=O)(=O)O)cc(c1OCCCCCCCCCCCC)Cc1cc(S(=O)(=O)O)cc(c1OCCCCCCCCCCCC)Cc1cc(S(=O)(=O)O)cc(c1O)C2
[3]
  Activity: 50 - 80%

## CC(C)CCCC(C)CCS(=O)(=O)CC(N)=O (stereo not given)
[1]
  MIC: 6.25 µg/mL (≈ 23.7 µM)

## OC[C@H]1O[C@@H](n2cnc3c(-c4ccns4)ncnc32)[C@H](O)[C@@H]1O
[5]; Mycolicibacterium smegmatis, ATCC 607, read-out: MIC
  MIC: 3 µM (≈ 1.01 µg/mL)

## CCCCCN(CCCCC)c1ccc(S(=O)(=O)c2ccc(N)cc2)cc1
[2]
  MIC: > 257 µg/mL

## CC(=O)OC[C@H]1O[C@@H](n2cnc3c(Cl)ncnc32)[C@H](OC(C)=O)[C@@H]1OC(C)=O
[6]
  inhibition at 6.25 µg/mL: 4%

## CCNc1ccc(S(=O)(=O)c2ccc(N)cc2)cc1
[2]
  MIC: 54.4 µg/mL (≈ 197 µM)

## CCCCCCCCS(=O)(=O)CC(=O)OC
[1]
  MIC: > 25 µg/mL

## C/C=C/C/C=C/CCC(=O)[C@H]1O[C@H]1C(N)=O [CERULENIN]
[1]
  MIC: 0.5 to 1.5 µg/mL (≈ 2.24 to 6.72 µM)

## O.O.OC[C@H]1O[C@@H](n2cnc3c(-c4cccs4)ncnc32)[C@H](O)[C@@H]1O
[5]
  MIC: 4 µM

## CCCCCCCCCCP(=O)([O-])CCC(N)=O.[K+]
[1]
  MIC: > 50 µg/mL

## NC(=O)CS(=O)(=O)CCCCCc1ccccc1
[1]
  MIC: 12.5 to 25 µg/mL (≈ 46.4 to 92.8 µM)

## NC(=O)c1cnccn1 [PYRAZINAMIDE]
[1]
  MIC: 100 µg/mL (≈ 812 µM)

## CCCCCCCCCCSCCC(N)=O
[1]
  MIC: 25 µg/mL (≈ 102 µM)

## Nc1ccc(S(=O)(=O)c2ccc(Cl)cc2)cc1
[2]
  MIC: 432 µg/mL (≈ 1610 µM)
[4]
  MIC: > 600 µg/mL

## CCCCCCCC[S+]([O-])CC(=O)OC (stereo not given)
[1]
  MIC: 12.5 µg/mL (≈ 53.3 µM)

## CCCCCCCC/C=C/S(=O)(=O)CC(N)=O
[1]
  MIC: 12.5 µg/mL (≈ 47.8 µM)

## NC(=O)CS(=O)(=O)CCCCCCc1ccccc1
[1]
  MIC: > 25 µg/mL

## CCCCCCCCOCC(N)=O
[1]
  MIC: > 25 µg/mL

## Nc1ccc(S(=O)(=O)c2ccc(NCCCO)cc2)cc1
[2]
  MIC: 19.6 µg/mL (≈ 64 µM)
[4]
  MIC: > 2400 µg/mL

## CCCCCCCCS(=O)(=O)NC(N)=O
[1]
  MIC: > 25 µg/mL

## Nc1ccc(S(=O)(=O)c2ccc(Br)cc2)cc1
[2]
  MIC: 319 µg/mL (≈ 1020 µM)

## COC(=O)CNc1ccc(S(=O)(=O)c2ccc(N)cc2)cc1
[2]
  MIC: 32.8 µg/mL (≈ 102 µM)
[4]
  MIC: > 800 µg/mL

## Cl.OC[C@H]1O[C@@H](n2cnc3c(-c4cccs4)ncnc32)[C@H](O)[C@@H]1O
[5]
  MIC: 0.4 µM

## CC(C)CCCCCCCS(=O)(=O)CC(N)=O
[1]
  MIC: 1.5 µg/mL (≈ 5.69 µM)

## CCCCCNc1ccc(S(=O)(=O)c2ccc(N)cc2)cc1
[2]
  MIC: 377 µg/mL (≈ 1180 µM)
[4]
  MIC: > 500 µg/mL
